Source: patent publication US8163909B2, “Substituted hydroxyethyl amine compounds as beta-secretase modulators and methods of use” (Amgen Inc., priority 2007, dated 2012)
Read-outs that look alike come from different tables or passages of the source.

What was measured:
[1] = tested on: Aβ40 in conditioned medium of cells stably expressing Amyloid Precursor Protein (APP); assay: In vitro BACE cell-based assay (Aβ40 in conditioned medium, sandwich ELISA); settings: Homo sapiens;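 also: compounds added as a dilution series, secreted peptide quantified by europium time-resolved fluorescence readout, potency fitted from percent of control versus compound concentration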
[2] = biological target: Beta Secretase enzyme (BACE) (Homo sapiens, UniProt P56817); assay: In vitro enzymatic BACE FRET (fluorescence resonance energy transfer) assay; assay type: biochemical;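 also: fluorescence read after 1 h with 50 nM quenched peptide substrate spanning the BACE cleavage site, in pH 4.2 acetate buffer containing 10% DMSO and nonionic detergent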
[3] = HEK293, HEK cells, cell-based assay, read-out: HEK cell assay (IC50)
[4] = BACE enzyme assay, read-out: BACE1 FRET assay (IC50)
[5] = BACE enzyme FRET assay, read-out: BACE1 FRET assay (IC50)
[6] = HEK293, Table 1, HEK cells, read-out: HEK cell assay
[7] = Table 1, read-out: BACE1 FRET assay

Beta Secretase enzyme (BACE), sequence (P56817 46-501): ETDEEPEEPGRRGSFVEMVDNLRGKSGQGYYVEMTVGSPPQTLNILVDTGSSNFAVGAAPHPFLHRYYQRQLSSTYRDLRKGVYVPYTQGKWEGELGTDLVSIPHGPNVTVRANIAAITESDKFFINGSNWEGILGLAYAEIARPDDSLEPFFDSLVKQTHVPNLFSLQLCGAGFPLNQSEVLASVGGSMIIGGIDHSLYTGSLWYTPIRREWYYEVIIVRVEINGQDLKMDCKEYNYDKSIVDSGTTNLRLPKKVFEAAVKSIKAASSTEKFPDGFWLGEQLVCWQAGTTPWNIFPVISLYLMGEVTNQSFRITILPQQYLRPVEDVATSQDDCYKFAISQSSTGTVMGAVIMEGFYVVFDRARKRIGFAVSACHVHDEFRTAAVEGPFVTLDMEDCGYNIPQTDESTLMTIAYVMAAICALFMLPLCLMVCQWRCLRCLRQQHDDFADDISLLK

| IC50 [1, 3] [µM] | IC50 [2, 4] [µM] | IC50 [2, 5] [µM] | SMILES | also measured |
| --- | --- | --- | --- | --- |
| 0.0638 | – | 0.082 | CC(=O)N[C@@H](Cc1ccc2c(c1)OCO2)[C@H](O)CN[C@H]1CC2(CCC2)Oc2ncc(CC(C)(F)F)cc21 [compound 275] | – |
| 0.108 | – | 0.087 | COCC(=O)NC(Cc1ccc2c(c1)OCO2)C(O)CNC1CC2(CC(F)C2)Oc2ncc(CC(C)(C)C)cc21 [compound 240, N-((1S,2R)-1-(1,3-benzodioxol-5-ylmethyl)-3-(((1s,3S,4′S)-6′-(2,2-dimethylpropyl)-3-fluoro-3′,4′-dihydrospiro[cyclobutane-1,2′-pyrano[2,3-b]pyridin]-4′-yl)amino)-2-hydroxypropyl)-2-(methyloxy)acetamide] | – |
| 0.455 | – | 0.0539 | CC(C)(C)Cc1cnc2c(c1)[C@@H](NC[C@@H](O)[C@H](Cc1ccc3c(c1)OCO3)NC(=O)C(F)(F)F)CC1(CCC1)O2 [compound 288] | – |
| 0.143 | 0.0398 | – | COCC(=O)NC(Cc1ccc2c(c1)OCO2)C(O)CNC1CC2(CC(C)C2)Oc2ncc(CC(C)C)cc21 [compound 133, N-((1S,2R)-1-(1,3-benzodioxol-5-ylmethyl)-2-hydroxy-3-(((1s,3R,4′S)-3-methyl-6′-(2-methylpropyl)-3′,4′-dihydrospiro[cyclobutane-1,2′-pyrano[2,3-b]pyridin]-4′-yl)amino)propyl)-2-(methyloxy)acetamide] | – |
| 0.035 | – | 0.0172 | COC(C)C(=O)NC(Cc1ccc2c(c1)OCO2)C(O)CNC1CC2(CC(O)C2)Oc2ncc(CC(C)C)cc21 [compound 248, (2R)—N-((1S,2R)-1-(1,3-benzodioxol-5-ylmethyl)-2-hydroxy-3-(((1s,3S,4′S)-3-hydroxy-6′-(2-methylpropyl)-3′,4′-dihydrospiro[cyclobutane-1,2′-pyrano[2,3-b]pyridin]-4′-yl)amino)propyl)-2-(methyloxy)propanamide] | – |
| 0.0229 | – | 0.0229 | CC(=O)N[C@@H](Cc1ccc2c(c1)OCCO2)[C@H](O)CN[C@H]1CC2(CCC2)Oc2ncc(CC(C)(C)C)cc21 [compound 205] | – |
| 0.0113 | – | 0.0065 | COCC(=O)NC(Cc1ccc(F)cc1)C(O)CNC1CC2(CC(O)C2)Oc2ncc(CC(C)C)cc21 [compound 249, N-((1S,2R)-1-((4-fluorophenyl)methyl)-2-hydroxy-3-(((1s,3S,4′S)-3-hydroxy-6′-(2-methylpropyl)-3′,4′-dihydrospiro[cyclobutane-1,2′-pyrano[2,3-b]pyridin]-4′-yl)amino)propyl)-2-(methyloxy)acetamide] | – |

The next lines start with the molecule.

| SMILES | IC50 [1, 3] [µM] | IC50 [2, 4] [µM] | IC50 [2, 5] [µM] | also measured |
| --- | --- | --- | --- | --- |
| COC(C)C(=O)NC(Cc1ccc(F)cc1)C(O)CNC1CC2(CCC2)Oc2ncc(CC(C)(C)C)cc21 [compound 154, (2R)—N-((1S,2R)-3-(((4′S)-6′-(2,2-dimethylpropyl)-3′,4-dihydrospiro[cyclobutane-1,2′-pyrano[2,3-b]pyridin]-4′-yl)amino)-1-((4-fluorophenyl)methyl)-2-hydroxypropyl)-2-(methyloxy)propanamide] | 0.028 | 0.0132 | – | – |
| COCC(=O)N[C@@H](Cc1ccc(F)cc1)[C@H](O)CN[C@H]1CC2(CCC2)Oc2ncc(CC(C)(F)F)cc21 [compound 271] | 0.1 | – | 0.0387 | – |
| COCC(=O)N[C@@H](Cc1cccc(F)c1)[C@H](O)CN[C@H]1CC2(CCC2)Oc2ncc(CC(C)(C)C(F)(F)F)cc21 [compound 73] | 0.0531 | 0.016 | – | – |
| CO[C@H](C)C(=O)N[C@@H](Cc1ccc(F)cc1)[C@H](O)CN[C@H]1CC2(CCC2)Oc2cnc(CC(C)(C)F)cc21 [compound 256] | 0.274 | – | 0.226 | – |
| CC#Cc1cccc(C[C@H](NC(=O)[C@@H](C)OC)[C@H](O)CN[C@H]2CC3(CCC3)Oc3ncc(CC(C)(C)C)cc32)c1 [compound 895] | – | – | – | IC50 ([1]; HEK293, cell-based assay, HEK cells, IC50's in uM, read-out: HEK cell assay): 0.017 µM; IC50 ([2]; BACE enzyme assay, IC50's in uM, read-out: BACE1 FRET assay): 0.016 µM |
| COCC(=O)N[C@@H](Cc1cc(F)cc(-c2nccn2C)c1)[C@H](O)CN[C@H]1CC2(CCC2)Oc2ncc(CC(C)(C)C)cc21 [compound 740, N-((1S,2R)-3-(((4′S)-6′-(2,2-dimethylpropyl)-3′,4′-dihydrospiro[cyclobutane-1,2′-pyrano[2,3-b]pyridin]-4′-yl)amino)-1-(3-fluoro-5-(1-methyl-1H-imidazol-2-yl)benzyl)-2-hydroxypropyl)-2-methoxyacetamide] | – | – | – | IC50 ([1]; HEK293, HEK cell-based assay IC50, read-out: HEK cell assay): 0.006 µM; IC50 ([2]; BACE enzyme assay IC50, read-out: BACE1 FRET assay): 0.051 µM |
| CC(C)(C)Cc1cnc2c(c1)[C@@H](NC[C@@H](O)[C@H](Cc1cc(F)cc(F)c1)NC(=O)C(Cl)Cl)CC1(CCC1)O2 [compound 95] | 0.0167 | 0.00043 | – | – |
| CO[C@H](C)C(=O)N[C@@H](Cc1ccc2c(c1)OCO2)[C@H](O)CN[C@H]1CC2(CCC2)Oc2ncc(CC(C)(C)C(F)(F)F)cc21 [compound 363] | – | – | – | IC50 [1, 6]: 0.16 µM; IC50 [2, 7]: 0.049 µM |
| COCC(=O)N[C@@H](Cc1ccc(F)cc1)[C@H](O)CN[C@H]1CC2(CCC2)Oc2ncc(CC(C)(C)C(F)F)cc21 [compound 160] | 0.0391 | 0.00884 | – | – |
| COCC(=O)N[C@@H](Cc1cccc(F)c1)[C@H](O)CN[C@H]1CC2(CCC2)Oc2ncc(CC(F)(F)F)cc21 [compound 350] | – | – | – | IC50 [1, 6]: 0.0245 µM; IC50 [2, 7]: 0.00909 µM |
| CC(=O)N[C@@H](Cc1ccccc1)[C@H](O)CN[C@H]1CC2(CCC2)Oc2ncc(CC3CC3)cc21 [compound 202] | 0.0659 | – | 0.0342 | – |
| CO[C@H](C)C(=O)N[C@@H](Cc1cc(F)c2c(c1)OCO2)[C@H](O)CN[C@H]1CC2(CCC2)Oc2ncc(CC(C)C)cc21 [compound 343] | – | – | – | IC50 [1, 6]: 0.0417 µM; IC50 [2, 7]: 0.0344 µM |
| CO[C@H](C)C(=O)N[C@@H](Cc1ccc(Cl)c(F)c1)[C@H](O)CN[C@H]1CC2(CCC2)Oc2ncc(CC(C)(C)F)cc21 [compound 70] | 0.138 | 0.0558 | – | – |
| CC(=O)N[C@@H](Cc1ccc(F)cc1)[C@H](O)CN[C@H]1CC2(CCC2)C(F)(F)c2ncc(CC(C)(C)C)cc21 [compound 165] | 0.109 | 0.107 | – | – |
| CC(=O)N[C@@H](Cc1ccc(F)c(Br)c1)[C@H](O)CN[C@H]1CC2(CCC2)Oc2ncc(OC(C)(C)C)cc21 [compound 353, N-((1S,2R)-1-((3-bromo-4-fluorophenyl)methyl)-3-(((4′S)-6′-((1,1-dimethylethyl)oxy)-3′,4′-dihydrospiro[cyclobutane-1,2′-pyrano[2,3-b]pyridin]-4′-yl)amino)-2-hydroxypropyl)acetamide] | – | – | – | IC50 [1, 6]: 0.424 µM; IC50 [2, 7]: 0.12 µM |
| CO[C@H](C)C(=O)N[C@@H](Cc1cccc(F)c1)[C@H](O)CN[C@H]1CC2(CCC2)Oc2ncc(CC(C)(C)F)cc21 [compound 301] | 0.00699 | – | 0.00781 | – |
| CC(C)(C)Cc1cnc2c(c1)[C@@H](NC[C@@H](O)[C@H](Cc1ccc(F)cc1)NC(=O)C(F)C(F)(F)F)CC1(CCC1)O2 (stereo partly shown) [compound 158] | 0.241 | 0.0504 | – | – |
| COCC(=O)N[C@@H](Cc1ccc(F)cc1)[C@H](O)CN[C@H]1CC2(CCC2)Oc2c1cc(CC(C)(C)C)nc2C [compound 153] | 0.153 | 0.2 | – | – |
| COCC(=O)N[C@@H](Cc1ccccc1)[C@H](O)CN[C@H]1CC2(CCC2)Oc2c1cc(CC(C)(C)C)nc2N(C)C [compound 113] | 0.497 | 0.0265 | – | – |
